Reference: patent US20240382610A1 (priority 2021, published 2024)

Tests used:
CD19+ B cells = test: Free CpG activity on CD40 expression by CD19+ B cells in human PBMCs; format: cell-based; conditions: PBMC from three donors (D559, D804, D643)
Procedure: Trima residuals were received from Vitalant and diluted 1:2 with Phosphate Buffered Saline (PBS, Gibco). Diluted blood was split into two tubes and underplayed with 15 mL Ficoll-Paque (GE Healthcare). Tubes were centrifuged for 30 minutes at 400×g. PBMCs were collected from the interface, resuspended and washed in FACS buffer (PBS with 0.5% Bovine Serum Albumin (Gibco)). After one wash, PBMCs were resuspended in Complete RPMI (RPMI+10% FBS).
PBMCs were immediately plated onto a 96-well format (500K/well) in Complete RPMI. Five-fold serial dilutions were added to the cells from 1 uM to […] of CpG oligonucleotides at 37° C. under 5% CO2 for 48 hours. Cells were pelleted by centrifugation for five minutes at 400×g and stained at 4° C. in Fixable Viability Dye eFluor 780 (Thermo Fisher) diluted 1:4000 in PBS. Cells were centrifuged and stained at 4° C. in FACS buffer for 30 minutes containing FcR Blocking Reagent (Miltenyi Biotec), anti-CD19, anti-CD20, anti-CD40, anti-HLADR and anti-CD80. Cells were centrifuged and washed twice in FACS buffer and fixed in 0.5% paraformaldehyde. Cells were analyzed on Attune NxT Flow Cytometer (Thermo Fisher), with subsequent data analysis by Flowjo 10.7 (Treestar). Dead cells were excluded by gating on the eFluor 780-negative population. B cells were identified as CD19^+CD20^+cells and level of activation marker was assessed by median fluorescent intensity. […]

[1] = test system: DLD-1 nectin-4 tumor cells; format: cell-based, human
[2] = test system: Ramos-Blue Cells NF-kB/AP-1 Reporter B lymphocytes; test: Ramos NFkb Reporter Assay; format: cell-based; conditions: 24 h stimulation, OD655

CpG 7-7: "CpG 7-7 (7-7b; SEQ ID NO:35)", free CpG oligonucleotide of series 7 (DNA NCGTCGTGTCGTTT; modified_base 1 OTHER; 5-Bromo-2'-deoxyuridine; modified_base 1..4 OTHER; phosphorothioate linkages; modified_base 4..5 OTHER; phosphotriester linker-PEG24-NH2; modified_base 5..9 OTHER; modified_base 9..10 OTHER; phosphorodithioate linkage; modified_base 10..14 OTHER; modified_base 13..14 OTHER; 2'-O-methyl-thymidine; misc_feature 14 3' spacer)
activity as observed by CD40 expression (CD19+ B cells): higher activities
phagocytosis of DLD-1 nectin-4 tumor cells by macrophages [1]: did not appear to result in detectable phagocytosis
activity in NFkb reporter assay [2]: significantly higher activity
